These are literature values, as cited in patent publication US20070298135A1, “TOPICAL HERBAL FORMULATIONS” (BIOBOTANIC CORP., priority 2006, published 2007).

Molecules are shown by their SMILES.

Consider `C[C@@H]1CC[C@@]2(OC1)O[C@H]1C[C@H]3[C@@H]4CC=C5C[C@@H](O[C@@H]6O[C@H](CO)[C@@H](O[C@@H]7O[C@@H](C)[C@H](O)[C@@H](O)[C@H]7O)[C@H](O)[C@H]6O[C@@H]6O[C@@H](C)[C@H](O)[C@@H](O)[C@H]6O)CC[C@]5(C)[C@H]4CC[C@]3(C)[C@H]1[C@@H]2C` [Doscin], for which the “solubility in lipophilic organic solvent” value (lipophilic organic solvent) is on record as “insoluble”. Further, the “solubility in polar liquid media” value (methanol, ethanol, n-butanol, water, hydrate methanol and ethanol, soluble = at least 0.1 mg/ml (w/v) at about 25° C.) is listed as “soluble”.
